In brackets after ≈: the same amount, converted by molar mass.
Experiments:
[1] = system: HepG2 cells; test: HepG2 cell proliferation assay (XTT); format: cell-based, human; details: IMDM media with 20% FBS and 1% ethanol, read-out: predetermined IC50 concentrations
Procedure: HepG2 cells were obtained from the American Type Culture Collection (ATCC). Normal hepatocyte pool of cells was acquired from Xenotech. Cryopreserved cells in DMEM containing 5% DMSO were thawed and diluted 10-fold in phenol red free DMEM media containing 10% fetal bovine serum, 100 μg/ml penicillin/streptomycin, supplemented with Glutamax™ and sodium pyruvate. Subsequently, cells were centrifuged at 20 g for 10 minutes. The cells were resuspended in the same media with added Revitacell® to a concentration of […]. Ninety-six well cell culture treated flat bottom plates were seeded with 7.5×10^3 cells in 100 μl and incubated at 37° C., 7.5% CO2, >95% relative humidity for 18 hours to allow cellular adhesion after which media was replaced with like media (DMEM, IMDM, Williams E) containing 1 to 20% FBS and various test compounds (10 μg/ml to 100 ng/ml). After 48 hours (2 doublings of cells), sodium; 2-(2-methoxy-4-nitro-5-sulfonatophenyl)-3-(2-methoxy-4-nitro-5-sulfophenyl)-N-phenyltetrazol-3-ium-5-carboximidate (XTT) (300 μg/ml) was added, and cells incubated for 2 hours. Formazan production was measured at 450 nm on a Varioskan lux spectrophotometer. Non-specific absorption was measured at 660 nm and subtracted from the reference measurement at 450 nm. Experiments were performed in triplicates (n=3). […]
The objectives of this example are to, first, establish the procedure of a two-component interaction study; and second, establish a method of analysis to identify potential interactions among the two components/compounds. […] Following 48 hours of incubation, the IC50 values of various mixtures were obtained and compared with the pure compound's IC50 values and predicted/calculated IC50 values for the various mixtures. […]
Samples from the serial dilutions were analyzed by LC-MS/MS to orthogonally confirm concentrations. […]
To assess potential interactions, the IC50 values for individual cannabinoids in the control lanes were calculated and used to predict and IC50 value for the summation of their individual components.

[2] = system: HepG2 cells; test: rtPCR gene expression analysis (TaqMan array card); format: cell-based, human
Procedure: Target cancer gene pathways were analyzed using a custom Taqman® array card exploring 90 unique genes associated with cancer related pathways (Kanehisa, Goto et al. 2010).
Two million HepG2 cells in IMDM media with 20% FBS, and 1% ethanol were seeded in T75 flasks and incubated at 37° C., 7.5% CO2 until 70-80% confluent (approx. […]). […] Untreated cells were included as a negative control. Glyceraldehyde-3-phosphate dehydrogenase (GAPDH) was included as an endogenous control and used for normalization of the data.
Following a 6-hour incubation with the test compounds, the RNA was extracted using Invitrogen's Dynabead mRNA DIRECT kit using the recommended protocol to provide 50 μL of a purified mRNA solution. Fifty μL of RT master mix was mixed into the mRNA solution and the mixture left to react at 37° C. for 60 minutes. Reverse transcriptase inactivation was performed at 95° C. for 5 minutes and the resulting cDNA samples were kept at 4° C. until use. Fifty-five microliters of TaqMan Fast Advance master mix were added to an equal amount of cDNA sample containing 1 μg/100 μl of cDNA, which was loaded into each card reservoir. The cards were centrifuged twice at 1200 RPM for 3 minutes in a Legend XFR centrifuge and the rtPCR reaction was conducted in a QuantStudio7 PCR instrument using the recommended settings with 40 amplification cycles. Data processing was done using ThermoFisher's Connect™ application.

[3] = system: PDX tumor model (575); test: In vivo PDX model with drug-loaded nanonails; design: species or system NCG mice; details: intra-tumoral nanonail, 72 hours
Procedure: Drug candidates were mixed with FITC-labeled PEG-5000 with a milligram ratio of 2:8 in a suitable solvent and lyophilized to dryness. Samples of the resultant mixtures (10 mg) were loaded into nanonails (Kibur Medical Inc.), a device invented to test multiple samples in a single tumor. The dimension of the cylindrical device is 4 mm×820 μm containing 18 reservoirs 200 μm wide and 250 μm deep. The loaded devices were kept at −80° C. until tumor implant. NCG mice (female, 8-12 weeks old) from Charles River were injected subcutaneously with 100 μL of LIXF-575 cells per mouse. The body weight of the mice and caliper measurements of the tumors were performed every 3 days until the tumors reached 300-400 mm^3 (about 12 weeks). Nine mice were used for intra-tumoral implantation. […]

[4] = cited from earlier work
[5] = Cell Cycle, 6 h at IC50 concentration, relative to negative control
[6] = MAP kinase, 6 h at IC50 concentration, relative to negative control
[7] = PI3K pathway, 6 h at IC50 concentration, relative to negative control

## CCCCCc1cc2c(c(O)c1C(=O)O)-c1cc(C)ccc1C(C)(C)O2 [CBNA, cannabinolic acid]
[1]
  IC50: 20 µM
[2]; Angiogenesis, 6 h at IC50 concentration, relative to negative control
  ΔΔCt VEGFA: −2.861
[2]; [5]
  ΔΔCt BAX: −1.062
  ΔΔCt BECN1: −1.7
  ΔΔCt CCND2: −1.539
  ΔΔCt CCNE1: −2.445
  ΔΔCt CDK1: 1.051
  ΔΔCt CDK2: 1.102
  ΔΔCt MNT: −1.868
[2]; Drug Resistance, 6 h at IC50 concentration, relative to negative control
  ΔΔCt MITF: −2.367
[2]; HepG2, 6 hour timeframe
  downregulation of the ERBB2/HER2 receptor: 8 fold
[2]; [6]
  ΔΔCt ERBB2: 3.097
  ΔΔCt MAP1LC3A: −1.26
  ΔΔCt MAP2K2: −1.607
  ΔΔCt RASA1: −1.904
[2]; [7]
  ΔΔCt PIK3CA: −1.639
  ΔΔCt PTEN: −1.446
[2]; TGF signaling, 6 h at IC50 concentration, relative to negative control
  ΔΔCt SMAD3: 2.577
[3]
  cell proliferation (Ki67) in nanonail implanted 575 PDX tumors: not significantly affected

## C=C(C)[C@@H]1CCC(C)=C[C@H]1c1c(O)cc(CCCCC)c(C(=O)O)c1O [CBDA, cannabidiolic acid]
[4]; CBDA versus its decarboxylated counterpart
  times more water soluble compared to CBD: about 25,000 times
[4]
  water solubility: 17.5 mg/mL (≈ 48.8 mM)

From patent publication US20260232699A1, “COMPOSITIONS OF A CANNABINOID AND A KINASE INHIBITOR FOR THE TREATMENT OF CANCER” (SINOVEDA CANADA INC., priority 2023, published 2026)
